According to patent US7038077B2, “Prodrugs of excitatory amino acids” (Eli Lilly and Company, priority 2001, dated 2006):

SMILES	melting point
Cl.N[C@@]1(C(=O)OCc2ccccc2C(F)(F)F)CC[C@H]2[C@H](C(=O)O)[C@H]21	> 175 °C (dec.)
Cl.N[C@@]1(C(=O)OCc2ccc(Cl)cc2Cl)CC[C@H]2[C@H](C(=O)O)[C@H]21 [Example 29, (1S,2S,5R,6S)-2-Amino-bicyclo[3.1.0]hexane-2,6-dicarboxylic acid 2-(2′,4′-dichloro)benzyl ester hydrochloride]	135 to 137 °C
Cl.N[C@@]1(C(=O)OCc2ccccc2Br)CC[C@H]2[C@H](C(=O)O)[C@H]21 [Example 34, (1S,2S,5R,6S)-2-Amino-bicyclo[3.1.0]hexane-2,6-dicarboxylic acid 2-(2′-bromo)benzyl ester hydrochloride]	190 to 191 °C
COc1ccccc1COC(=O)[C@]1(N)CC[C@H]2[C@H](C(=O)O)[C@H]21 [Example 48, (1S,2S,5R,6S)-2-Amino-bicyclo[3.1.0]hexane-2,6-dicarboxylic acid 2-(2′-methoxy)benzyl ester]	195 °C (dec.)

Next, values leading:

melting point	SMILES
> 220 °C (dec.)	Cl.N[C@@]1(C(=O)OCc2ccccc2F)CC[C@H]2[C@H](C(=O)O)[C@H]21 [Example 31, (1S,2S,5R,6S)-2-Amino-bicyclo[3.1.0]hexane-2,6-dicarboxylic acid 2-(2′-fluoro)benzyl ester hydrochloride]
173 to 175 °C	Cl.N[C@@]1(C(=O)OCc2cc(Cl)ccc2Cl)CC[C@H]2[C@H](C(=O)O)[C@H]21 [Example 33, (1S,2S,5R,6S)-2-Amino-bicyclo[3.1.0]hexane-2,6-dicarboxylic acid 2-(2′,5′-dichloro)benzyl ester hydrochloride]
98 to 99 °C	Cl.N[C@@]1(C(=O)OCc2cc(F)cc(F)c2)CC[C@H]2[C@H](C(=O)O)[C@H]21 [Example 35, (1S,2S,5R,6S)-2-Amino-bicyclo[3.1.0]hexane-2,6-dicarboxylic acid 2-(3′,5′-difluoro)benzyl ester hydrochloride]
70 °C (dec.)	Cc1ccc(C)c(COC(=O)[C@]2(N)CC[C@H]3[C@H](C(=O)O)[C@H]32)c1.Cl [Example 41, (1S,2S,5R,6S)-2-Amino-bicyclo[3.1.0]hexane-2,6-dicarboxylic acid 2-(2′,5′-dimethyl)benzyl ester hydrochloride]
225 °C (dec.)	N[C@@]1(C(=O)OCc2cccc(F)c2)CC[C@H]2[C@H](C(=O)O)[C@H]21 [Example 54, (1S,2S,5R,6S)-2-Amino-bicyclo[3.1.0]hexane-2,6-dicarboxylic acid 2-(3′-fluoro)benzyl ester]
